This note sets out measurements from patent US8497383B2, “HIV protease inhibitors” (Merck Sharp & Dohme Corp., priority 2009, dated 2013).

Experiment [1] relates to acute HIV infection of T-lymphoid cells (HIV-1 replication). In words: Assay for inhibition of HIV replication (Spread Assay). The class given is cell-based. As to conditions: Human immunodeficiency virus 1, T-lymphoid, 10% FBS. As to the method:
Assays for the inhibition of acute HIV infection of T-lymphoid cells were conducted in accordance with Vacca, J. P. et al., Proc. Natl. Acad. Sci. USA 1994, 91: 4096.

The target of another experiment is T1, wild-type HIV-1 protease (Human immunodeficiency virus type 1 group M subtype B, UniProt P04585).
T1 construct: the protease (which was expressed in Eschericia coli); made in house; host or cells: Escherichia coli
In words: Assay for inhibition of microbial expressed HIV protease. Type of experiment: biochemical. As to the method:
Inhibition studies of the reaction of the protease (which was expressed in Eschericia coli) with a peptide substrate [Val-Ser-Gln-Asn-(betanapthyl)Ala-Pro-Ile-Val] (SEQ ID NO: 1). The inhibitor is first preincubated with the enzyme in assay buffer (50 mM sodium acetate, pH 5.5, 100 mM NaCl, and 0.1% BSA) for 30 minutes at room temperature. Substrate is added to 440 micromolar in a total volume of 80 microliters containing 5 picomolar HIV-1 protease, and the reaction is incubated for 1 hour at 30° C. The reaction is quenched by addition of 120 microliters of 10% phosphoric acid, and product formation is determined after separation of product and substrate on a Vydac C18 column connected to an Alliance high performance liquid chromatography system (Waters Corporation). The extent of inhibition of the reaction is determined from the peak area of the products.

As for `COC(=O)N[C@H](C(=O)NCCC[C@@H]1CNC[C@H]1N(CCC(C)C)S(=O)(=O)c1ccc(N)cc1)C(c1ccccc1)c1ccccc1` (relative stereo) [Example 12, N-{3-[(3R*,4S*)-4-{[(4-aminophenyl)sulfonyl](3-methylbutyl)amino}pyrrolidin-3-yl]propyl}-Nα-(methoxycarbonyl)-β-phenyl-L-phenylalaninamide], the 95% effect concentration (IC95) – broadly, the point of the concentration-response curve where the effect stands at 95% – in experiment [1] is 324 nM. The IC50 – broadly, the concentration at which inhibition is half-maximal – at wild-type HIV-1 protease was 0.05 nM.
For `COC(=O)N[C@H](C(=O)NCCN[C@@H]1CNC[C@H]1N(CCC(C)C)S(=O)(=O)c1ccc(N)cc1)C(c1ccccc1)c1ccccc1` [Example 1, N-(2-{[(3R,4R)-4-{[(4-aminophenyl)sulfonyl](3-methylbutyl)amino}pyrrolidin-3-yl]amino}ethyl)-Nα-(methoxycarbonyl)-β-phenyl-L-phenylalaninamide] the same measures were 495 nM and 0.7 nM.
In the same order, the values of `COC(=O)N[C@H](C(=O)N[C@@H](C)CN[C@@H]1CNC[C@H]1N(CCC(C)C)S(=O)(=O)c1ccc(N)cc1)C(c1ccccc1)c1ccccc1` [Example 2, N-[(2S)-1-{[(3R,4R)-4-{[(4-aminophenyl)sulfonyl](3-methylbutyl)amino}pyrrolidin-3-yl]amino}propan-2-yl]-Nα-(methoxycarbonyl)-β-phenyl-L-phenylalaninamide] are 423 nM and 0.055 nM.
The compound `CC[C@@H](CN[C@@H]1CNC[C@H]1N(CCC(C)C)S(=O)(=O)c1ccc(N)cc1)NC(=O)[C@@H](NC(=O)OC)C(c1ccccc1)c1ccccc1` [Example 3, N-[(2S)-1-{[(3R,4R)-4-{[(4-aminophenyl)sulfonyl](3-methylbutyl)amino}pyrrolidin-3-yl]amino}butan-2-yl]-Nα-(methoxycarbonyl)-β-phenyl-L-phenylalaninamide] gave a 95% effect concentration (IC95) in experiment [1] of 472 nM. The IC50 against wild-type HIV-1 protease was 0.22 nM.
For `CCCCC(CN[C@@H]1CNC[C@H]1N(CCC(C)C)S(=O)(=O)c1ccc(N)cc1)NC(=O)[C@@H](NC(=O)OC)C(c1ccccc1)c1ccccc1` (stereo partly drawn) [Example 4, N-(1-{[(3R,4R)-4-{[(4-aminophenyl)sulfonyl](3-methylbutyl)amino}pyrrolidin-3-yl]amino}hexan-2-yl)-Nα-(methoxycarbonyl)-β-phenyl-L-phenylalaninamide] the same measures were 399 nM and 3.6 nM.
For `COC(=O)N[C@H](C(=O)N[C@H](CN[C@@H]1CNC[C@H]1N(CCC(C)C)S(=O)(=O)c1ccc(N)cc1)CC(C)C)C(c1ccccc1)c1ccccc1` [Example 5, N-[(2S)-1-{[(3R,4R)-4-{[(4-aminophenyl)sulfonyl](3-methylbutyl)amino}pyrrolidin-3-yl]amino}-4-methylpentan-2-yl]-Nα-(methoxycarbonyl)-β-phenyl-L-phenylalaninamide] the same measures were 405 nM and 3.2 nM.
For `COC(=O)N[C@H](C(=O)NC(C)(C)CN[C@@H]1CNC[C@H]1N(CCC(C)C)S(=O)(=O)c1ccc(N)cc1)C(c1ccccc1)c1ccccc1` [Example 6, N-(1-{[(3R,4R)-4-{[(4-aminophenyl)sulfonyl](3-methylbutyl)amino}pyrrolidin-3-yl]amino}-2-methylpropan-2-yl)-Nα-(methoxycarbonyl)-β-phenyl-L-phenylalaninamide] the same measures were 291 nM and 0.05 nM.
`COC(=O)N[C@H](C(=O)NCCN[C@@H]1CNC[C@H]1N(CC(C)C)S(=O)(=O)c1ccc(N)cc1)C(c1ccccc1)c1ccccc1` [Example 7, N-(2-{[(3R,4R)-4-{[(4-aminophenyl)sulfonyl](2-methylpropyl)amino}pyrrolidin-3-yl]amino}ethyl)-Nα-(methoxycarbonyl)-β-phenyl-L-phenylalaninamide] registered an IC95 in experiment [1] of 500 nM. Moreover, the half-inhibitory concentration (IC50) on wild-type HIV-1 protease is 3.7 nM.
In the case of `COC(=O)N[C@H](C(=O)NCCN[C@@H]1CNC[C@H]1N(C(C)C)S(=O)(=O)c1ccc(N)cc1)C(c1ccccc1)c1ccccc1` [Example 8, N-(2-{[(3R,4R)-4-{[(4-aminophenyl)sulfonyl](isopropyl)amino}pyrrolidin-3-yl]amino}ethyl)-Nα-(methoxycarbonyl)-β-phenyl-L-phenylalaninamide], the inhibition at 0.5 µM in experiment [1] (@ 500 nM, read-out: Spread - inhibition at a fixed concentration) came out at 26%. At wild-type HIV-1 protease, the IC50 came out at 22 nM.
In experiment [1], `COC(=O)N[C@H](C(=O)NCCN[C@@H]1CNC[C@H]1N(Cc1ccccc1)S(=O)(=O)c1ccc(N)cc1)C(c1ccccc1)c1ccccc1` [Example 9, N-(2-{[(3R,4R)-4-{[(4-aminophenyl)sulfonyl](benzyl)amino}pyrrolidin-3-yl]amino}ethyl)-Nα-(methoxycarbonyl)-β-phenyl-L-phenylalaninamide] had an IC95 of 505 nM. Also, the half-maximal inhibitory concentration (IC50) on wild-type HIV-1 protease was 8.6 nM.
For `COC(=O)N[C@H](C(=O)NCCN(C)[C@@H]1CNC[C@H]1N(CCC(C)C)S(=O)(=O)c1ccc(N)cc1)C(c1ccccc1)c1ccccc1` [Example 10, N-{2-[{(3R,4R)-4-[[(4-aminophenyl)sulfonyl](3-methylbutyl)amino]pyrrolidin-3-yl}(methyl)amino]ethyl}-N-alpha-(methoxycarbonyl)-beta-phenyl-L-phenylalaninamide] the same measures were 217 nM and 15 nM.
In the same order, the values of `COC(=O)N[C@H](C(=O)NCCN[C@@H]1CNC[C@H]1N(CCC(C)C)S(=O)(=O)c1ccc(CO)cc1)C(c1ccccc1)c1ccccc1` [Example 11, N-[2-({(3R,4R)-4-[{[4-(hydroxymethyl)phenyl]sulfonyl}(3-methylbutyl)amino]pyrrolidin-3-yl}amino)ethyl]-Nalpha-(methoxycarbonyl)-beta-phenyl-L-phenylalaninamide] are 328 nM and 0.29 nM.
